Results reported in US20210101928A1 (Sage Therapeutics, Inc., priority 2017, published 2021).

target: GABAA receptor ([35S]-TBPS binding, rat brain cortical membranes); test: Steroid inhibition of [35S]-TBPS binding; details: Table I-1, 3 nM [35S]-TBPS, in the presence of 5 mM GABA, read-out: TBPS binding IC50
Method in brief: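 Sprague-Dawley rat cortical P2 membranes incubated 90 min at room temperature with 3 nM [35S]-TBPS, […] GABA and test compound (0.5% DMSO) in 200 mM NaCl/50 mM Na-K phosphate pH 7.4. Nonspecific binding with […] TBPS; filtration and scintillation counting; IC50 and Imax from nonlinear fits.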

Compound	IC50 [nM]
CN(CC(=O)[C@H]1CC[C@H]2[C@@H]3CC[C@]4(C)C[C@](C)(O)CC[C@]4(C)[C@H]3CC[C@]12C)c1ccccc1 [I-A2, 1-((3R,5R,8S,9S,10R,13S,14S,17S)-3-hydroxy-3,5,10,13-tetramethylhexadecahydro-1H-cyclopenta[a]phenanthren-17-yl)-2-(methyl(phenyl)amino)ethan-1-one]	100 to 1000
C[C@@]1(O)CC[C@]2(C)[C@H]3CC[C@]4(C)[C@@H](C(=O)Cn5ncc6ccncc65)CC[C@H]4[C@@H]3CC[C@]2(C)C1 [I-A7, 1-((3R,5R,8S,9S,10R,13S,14S,17S)-3-hydroxy-3,5,10,13-tetramethylhexadecahydro-1H-cyclopenta[a]phenanthren-17-yl)-2-(1H-pyrazolo[3,4-c]pyridin-1-yl)ethan-1-one]	100 to 1000
C[C@@]1(O)CC[C@]2(C)[C@H]3CC[C@]4(C)[C@@H](C(=O)Cn5cc(C#N)cn5)CC[C@H]4[C@@H]3CC[C@]2(C)C1 [I-A4, 1-(2-((3R,5R,8S,9S,10R,13S,14S,17S)-3-hydroxy-3,5,10,13-tetramethylhexadecahydro-1H-cyclopenta[a]phenanthren-17-yl)-2-oxoethyl)-1H-pyrazole-4-carbonitrile]	100 to 1000
CC(=O)[C@H]1CC[C@H]2[C@@H]3CC[C@]4(C)C[C@](C)(O)CC[C@]4(C)[C@H]3CC[C@]12C [I-B6, 1-((3R,5R,8S,9S,10R,13S,14S,17S)-3-hydroxy-3,5,10,13-tetramethylhexadecahydro-1H-cyclopenta [a]phenanthren-17-yl)ethan-1-one]	100 to 1000

same assay, conditions: Table II-2, 3 nM [35S]-TBPS, in the presence of 5 mM GABA, read-out: TBPS IC50

Compound	IC50 [nM]
CCOC[C@@]1(O)CC[C@@]2(CC)[C@H](CC[C@H]3[C@@H]4CC[C@H](C(=O)Cn5ccnn5)[C@@]4(C)CC[C@@H]32)C1 [II-76, 1-((3R,5R,8S,9S,10S,13S,14S,17S)-3-(ethoxymethyl)-10-ethyl-3-hydroxy-13-methylhexadecahydro-1H-cyclopenta[a]phenanthren-17-yl)-2-(1H-1,2,3-triazol-1-yl)ethan-1-one]	10 to 100
CCOC[C@@]1(O)CC[C@@]2(CC)[C@@H](CC[C@H]3[C@@H]4CC[C@H](C(=O)Cn5ccc(C#N)n5)[C@@]4(C)CC[C@@H]32)C1 [II-D13, 1-(2-((3R,5S,8S,9S,10S,13S,14S,17S)-3-(ethoxymethyl)-10-ethyl-3-hydroxy-13-methylhexadecahydro-1H-cyclopenta[a]phenanthren-17-yl)-2-oxoethyl)-1H-pyrazole-3-carbonitrile]	10 to 100
CCOC[C@@]1(O)CC[C@@]2(CC)[C@@H](CC[C@H]3[C@@H]4CC[C@H](C(=O)Nc5ccc(C#N)cc5C)[C@@]4(C)CC[C@@H]32)C1 [II-63]	10 to 100
CCOC[C@@]1(O)CC[C@@]2(CC)[C@H](CC[C@H]3[C@@H]4CC[C@H](C(=O)Cn5ccc(C#N)n5)[C@@]4(C)CC[C@@H]32)C1 [II-79, 1-(2-((3R,5R,8S,9S,10S,13S,14S,17S)-3-(ethoxymethyl)-10-ethyl-3-hydroxy-13-methylhexadecahydro-1H-cyclopenta[a]phenanthren-17-yl)-2-oxoethyl)-1H-pyrazole-3-carbonitrile]	< 10
CC[C@]12CC[C@@](C)(O)C[C@H]1CC[C@H]1[C@@H]3CC[C@H](C(=O)Cn4nc5ccc(OC)cc5n4)[C@@]3(C)CC[C@@H]12 (single isomer, unassigned) [II-M2b]	< 10
CC[C@]12CC[C@@](C)(O)C[C@H]1CC[C@H]1[C@@H]3CC[C@H](C(=O)Nc4ccccc4)[C@@]3(C)CC[C@@H]12 [II-G3, (3R,5R,8S,9S,10S,13S,14S,17S)-10-ethyl-3-hydroxy-3,13-dimethyl-N-phenylhexadecahydro-1H-cyclopenta Ialphenanthrene-17-carboxamide]	< 10
CCOC[C@@]1(O)CC[C@@]2(CC)[C@H](CC[C@H]3[C@@H]4CC[C@H](C(=O)Nc5ccc(C#N)cc5C)[C@@]4(C)CC[C@@H]32)C1 [II-43, (3R,5R,8S,9S,10S,13S,14S,17S)-N-(4-cyano-2-methylphenyl)-3-(ethoxymethyl)-10-ethyl-3-hydroxy-13-methylhexadecahydro-1H-cyclopenta[a]phenanthrene-17-carboxamide]	< 10
CCOC[C@@]1(O)CC[C@@]2(CC)C(CC[C@@H]3[C@@H]2CC[C@]2(C)[C@@H](C(=O)Cn4nnc(C)n4)CC[C@@H]32)C1 (stereo in doubt) [II-77, 1-((3R,5R,8S,9S,10S,13S,14S,17S)-3-(ethoxymethyl)-10-ethyl-3-hydroxy-13-methylhexadecahydro-1H-cyclopenta[a]phenanthren-17-yl)-2-(5-methyl-2H-tetrazol-2-yl)ethan-1-one]	10 to 100
CCOC[C@@]1(O)CC[C@@]2(CC)[C@@H](CC[C@H]3[C@@H]4CC[C@H](C(=O)N5CCCC[C@@H]5C)[C@@]4(C)CC[C@@H]32)C1 [II-D11, ((3R,5S,8S,9S,10S,13S,14S,17S)-3-(ethoxymethyl)-10-ethyl-3-hydroxy-13-methylhexadecahydro-1H-cyclopenta[a]phenanthren-17-yl)((S)-2-methylpiperidin-1-yl)methanone]	100 to 1000
CC[C@]12CC[C@@](C)(O)C[C@H]1CC[C@H]1[C@@H]3CC[C@H](C(=O)Cn4cc(C#N)cn4)[C@@]3(C)CC[C@@H]12	< 10
CC[C@@H]1CCCCN1C(=O)[C@H]1CC[C@H]2[C@@H]3CC[C@@H]4C[C@](C)(O)CC[C@]4(CC)[C@H]3CC[C@]12C [II-21a, ((3R,5R,8S,9S,10S,13S,14S,17S)-10-ethyl-3-hydroxy-3,13-dimethylhexadecahydro-1H-cyclopenta[a]phenanthren-17-yl)((R)-2-ethylpiperidin-1-yl)methanone]	10 to 100
CC[C@]12CC[C@@](C)(O)C[C@H]1CC[C@H]1[C@@H]3CC[C@H](C(=O)N4CC[C@@H](c5ccccc5)C4)[C@@]3(C)CC[C@@H]12 [II-1]	10 to 100

same assay, conditions: Table III-1 (biological data), 3 nM [35S]-TBPS, in the presence of 5 mM GABA, read-out: TBPS IC50

Compound	IC50 [nM]
CC[C@]12CC[C@H]3[C@@H](CC[C@@H]4C[C@](C)(O)CC[C@@H]43)[C@@H]1CC[C@@H]2C(=O)Cn1cc(C#N)cn1 [III-A10, 1-(2-((3R,5R,8R,9R,10S,13S,14S,17S)-13-ethyl-3-hydroxy-3-methylhexadecahydro-1H-cyclopenta[a]phenanthren-17-yl)-2-oxoethyl)-1H-pyrazole-4-carbonitrile]	< 10
CC[C@]12CC[C@H]3[C@@H](CC[C@H]4C[C@@](O)(COC)CC[C@@H]43)[C@@H]1CC[C@@H]2C(=O)Cn1nnc(C)n1 [III-A22, 1-((3R,5S,8R,9R,10S,13S,14S,17S)-13-ethyl-3-hydroxy-3-(methoxymethyl)hexadecahydro-1H-cyclopenta [a]phenanthren-17-yl)-2-(5-methyl-2H-tetrazol-2-yl)ethan-1-one]	< 10
